Experimental findings from ChEMBL document CHEMBL1201862, “PubChem BioAssay data set” (2004) are described below.

Test systems include SK-MEL-2; IGROV-1; SR; U-251; Malme-3M; OVCAR-5; SN12C; HL-60; A498; RPMI-8226; EKVX; HCT-15; NCI-H460; OVCAR-8; LOX IMVI; MOLT-4; SK-MEL-28; NCI-H522; KM12; SF-539.
What all share (assay): NCI anticancer screen, dose series, 48 h

Molecules are shown by their SMILES.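 Exposure lasted 48 hours, with cells grown in 96-well plates and compounds tested at five concentrations. Abbreviation: GI50, concentration required for 50% inhibition of growth.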 Active and inactive are the calls of the source. Rule as the data show it: active = GI50 up to about 1.1 µM and inactive = higher.

As for `CC(=O)OC1=C2CC3(C)OC(=O)CC(C)(C)C3=CC=C2C=C(C(C)C)C1=O` (stereo not drawn), the GI50 was 0.459 µM (active) in the experiment with SK-MEL-2; 0.845 µM (active) with IGROV-1; 0.278 µM (active) with SR; 1.6 µM (inactive) with U-251; 0.356 µM (active) in the experiment on Malme-3M; 0.912 µM (active) in the experiment on OVCAR-5. The GI50 is 0.684 µM (active) in the experiment with SN12C; 0.28 µM (active) in the experiment on HL-60; 1.57 µM (inactive) in the experiment on A498; 0.22 µM (active) in the experiment on RPMI-8226; 1.89 µM (inactive) in the experiment on EKVX; 0.179 µM in the experiment with HCT-15. Further, the GI50 in the experiment with NCI-H460 was 1.51 µM (inactive); with OVCAR-8 it was 0.288 µM (active); in the experiment on LOX IMVI, 0.201 µM (active); with MOLT-4, 0.294 µM (active); in the experiment on SK-MEL-28, 0.456 µM (active); in the experiment with NCI-H522, 0.189 µM (active). Further, in the experiment on KM12, the GI50 was 1.15 µM (inactive).
Consider `C[Si](C)(C)OC1(C#N)c2ccccc2CCCC12CCCC2` (stereo not drawn), for which the GI50 with SK-MEL-2 was 18.5 µM (inactive); in the experiment with IGROV-1, 43.3 µM (inactive); in the experiment on SR, 29.6 µM (inactive); in the experiment with U-251, 29.4 µM (inactive); in the experiment on Malme-3M, 39.4 µM (inactive); in the experiment on SF-539 it was 53.5 µM (inactive). For the same molecule, the GI50 in the experiment on OVCAR-5 was > 100 µM (inactive); in the experiment with SN12C it was 59.4 µM (inactive); in the experiment with HL-60, 17.8 µM (inactive); with A498 it was 46.6 µM (inactive); in the experiment with RPMI-8226 it was 21.6 µM (inactive); in the experiment with EKVX, 31.3 µM (inactive). For the same molecule, the GI50 in the experiment on HCT-15 was 39 µM; in the experiment with NCI-H460, 37.6 µM (inactive); in the experiment with OVCAR-8, 50.9 µM (inactive); in the experiment with LOX IMVI, 22 µM (inactive); in the experiment on MOLT-4, 23.1 µM (inactive); in the experiment on SK-MEL-28, 44.5 µM (inactive). The GI50 with NCI-H522 was 21.9 µM (inactive); with KM12, 42.8 µM (inactive).
Regarding `COC(=O)[C@@H](NC(=O)[C@H](N)Cc1ccc(N(CCCl)CCCl)cc1)C(C)C`, the GI50 in the experiment with SK-MEL-2 was 28.9 µM (inactive); in the experiment with IGROV-1 it was 15.9 µM (inactive); with SR, 0.53 µM (active); with U-251 it was 19.4 µM (inactive); in the experiment with Malme-3M it was 1.92 µM (inactive); with SF-539, 7.91 µM (inactive). Also, the GI50 is 36.5 µM (inactive) in the experiment on OVCAR-5; 13.9 µM (inactive) with SN12C; 1.32 µM (inactive) in the experiment with HL-60; 18.7 µM (inactive) in the experiment with A498; 5.3 µM (inactive) with RPMI-8226; 34 µM (inactive) in the experiment on EKVX. Besides, the GI50 was 18.4 µM in the experiment with HCT-15; 10.1 µM (inactive) in the experiment on NCI-H460; 7.06 µM (inactive) with OVCAR-8; 5.97 µM (inactive) in the experiment with LOX IMVI; 0.0204 µM (active) in the experiment on MOLT-4; 11.9 µM (inactive) in the experiment with SK-MEL-28. The GI50 is 5.92 µM (inactive) in the experiment on NCI-H522 and 25.1 µM (inactive) with KM12.
Turning to `COc1ccc(/C(Cl)=C(\C=O)c2ccc(OC)cc2)cc1`, the GI50 in the experiment with SK-MEL-2 is > 100 µM (inactive); in the experiment on IGROV-1, > 100 µM (inactive); with SR, 10.8 µM (inactive); in the experiment with U-251, 70.8 µM (inactive); in the experiment with Malme-3M, > 100 µM (inactive); in the experiment with SF-539, > 100 µM (inactive). Moreover, the GI50 with OVCAR-5 was > 100 µM (inactive); with SN12C, > 100 µM (inactive); in the experiment with HL-60 it was 15.9 µM (inactive); with A498, > 100 µM (inactive); in the experiment on RPMI-8226, 37.9 µM (inactive); with EKVX, > 100 µM (inactive). Besides, the GI50 in the experiment with HCT-15 was 43.7 µM; with NCI-H460, 31.5 µM (inactive); in the experiment with OVCAR-8, 59.4 µM (inactive); in the experiment on LOX IMVI, 80 µM (inactive); with MOLT-4, 7 µM (inactive); in the experiment with NCI-H522, 18.3 µM (inactive).
Turning to `COc1cccc(NC(=O)CC(=O)n2nc(-c3ccccc3)c(/N=N/c3ccc(Cl)cc3)c2-c2ccccc2)c1`, the GI50 in the experiment with SK-MEL-2 was 21.5 µM (inactive); in the experiment on IGROV-1, 7.55 µM (inactive); in the experiment on SR, 11 µM (inactive); with U-251, 7.87 µM (inactive); in the experiment with Malme-3M it was 13.7 µM (inactive); in the experiment with SF-539 it was 26.6 µM (inactive). Besides, the GI50 in the experiment on OVCAR-5 was 64.9 µM (inactive); in the experiment with SN12C, 18.6 µM (inactive); in the experiment on HL-60, 6.43 µM (inactive); with A498, 25.6 µM (inactive); in the experiment with RPMI-8226 it was 12 µM (inactive); in the experiment with EKVX, 24 µM (inactive). The GI50 was 11.5 µM in the experiment with HCT-15; 10.5 µM (inactive) with NCI-H460; 15.8 µM (inactive) in the experiment with OVCAR-8; 13.2 µM (inactive) in the experiment with LOX IMVI; 9.84 µM (inactive) in the experiment on MOLT-4; 25.5 µM (inactive) in the experiment on SK-MEL-28. For the same molecule, the figures for the GI50 with NCI-H522 and in the experiment on KM12 were 19.4 µM (inactive) and 31.7 µM (inactive), respectively.
On to `CCc1ccc(Nc2cc(=O)[nH]c(=S)n2C)cc1`, for which the GI50 in the experiment on SK-MEL-2, with IGROV-1, with SR, in the experiment with U-251, with Malme-3M and in the experiment on SF-539 was > 100 µM (inactive) throughout. The GI50 in the experiment with OVCAR-5 was > 100 µM (inactive); in the experiment with SN12C, > 100 µM (inactive); in the experiment on HL-60, > 100 µM (inactive); with A498, > 100 µM (inactive); in the experiment on RPMI-8226, > 100 µM (inactive); with EKVX, 88.3 µM (inactive). For the same molecule, the GI50 in the experiment with HCT-15 is over 100 µM; in the experiment with NCI-H460, > 100 µM (inactive); with OVCAR-8, > 100 µM (inactive); in the experiment with LOX IMVI, > 100 µM (inactive); with MOLT-4, > 100 µM (inactive); in the experiment with NCI-H522 it was > 100 µM (inactive). Further, the GI50 in the experiment with KM12 was > 100 µM (inactive).
With `Nc1n[nH]c(CCCCCCCc2nnc(N)[nH]2)n1`, the GI50 with SK-MEL-2, in the experiment with SR, in the experiment on U-251, with Malme-3M, in the experiment on SF-539 and in the experiment on OVCAR-5 was > 100 µM (inactive) in each case. Besides, the GI50 was > 100 µM (inactive) in the experiment with SN12C; > 100 µM (inactive) in the experiment on HL-60; > 100 µM (inactive) in the experiment on A498; > 100 µM (inactive) in the experiment with RPMI-8226; > 100 µM (inactive) in the experiment with EKVX; over 100 µM in the experiment on HCT-15. Further, the GI50 in the experiment on NCI-H460, with LOX IMVI, with MOLT-4, in the experiment with SK-MEL-28, in the experiment on NCI-H522 and with KM12 was > 100 µM (inactive) each time.
For `O=[N+]([O-])c1ccc(C2=Nc3ccccc3SC(c3ccccc3)C2)cc1` (stereo not drawn), the GI50 in the experiment on SK-MEL-2 was 18.4 µM (inactive); in the experiment on IGROV-1 it was 16 µM (inactive); in the experiment on SR it was 18.2 µM (inactive); in the experiment on U-251, 13.1 µM (inactive); in the experiment with SF-539 it was 21.4 µM (inactive); with OVCAR-5, 19.5 µM (inactive). Moreover, the GI50 was 17 µM (inactive) with SN12C; 16.5 µM (inactive) in the experiment with HL-60; 22.3 µM (inactive) in the experiment with A498; 14.8 µM (inactive) with RPMI-8226; 16.6 µM (inactive) in the experiment on EKVX; 16.3 µM with HCT-15. Besides, the GI50 with NCI-H460 was 20.6 µM (inactive); in the experiment on OVCAR-8, 20.8 µM (inactive); in the experiment with LOX IMVI, 13.7 µM (inactive); with MOLT-4 it was 15.1 µM (inactive); in the experiment on SK-MEL-28, 21.3 µM (inactive); with NCI-H522, 13.4 µM (inactive). In addition, the GI50 with KM12 is 17.1 µM (inactive).
Take `O=C(Nc1ccccc1Br)c1cccc([N+](=O)[O-])c1O`: the GI50 with SK-MEL-2 was 6.9 µM (inactive); with IGROV-1, 2.88 µM (inactive); with SR it was 4.51 µM (inactive); in the experiment with U-251, 2.85 µM (inactive); in the experiment on Malme-3M, 2.48 µM (inactive); with SF-539, 5.61 µM (inactive). Besides, the GI50 in the experiment on OVCAR-5 is 5.13 µM (inactive); with SN12C, 3.94 µM (inactive); in the experiment on HL-60, 2.9 µM (inactive); in the experiment with A498, 2.49 µM (inactive); in the experiment on RPMI-8226, 1.52 µM (inactive); in the experiment with EKVX it was 3.04 µM (inactive). Moreover, the GI50 in the experiment with HCT-15 is 4.6 µM; with NCI-H460, 4.6 µM (inactive); in the experiment on OVCAR-8, 4.16 µM (inactive); with LOX IMVI it was 2.38 µM (inactive); in the experiment with MOLT-4, 2.26 µM (inactive); in the experiment with SK-MEL-28 it was 4.37 µM (inactive). Also, the values for the GI50 with NCI-H522 and with KM12 were 2.03 µM (inactive) and 4.26 µM (inactive), respectively.
Take `COC(=O)C1(Cc2ccccc2)Cc2cc3c(cc2C1)CCC3`: the GI50 in the experiment on SK-MEL-2 is 18.5 µM (inactive); in the experiment on IGROV-1 it was 24.5 µM (inactive); in the experiment with SR it was 13 µM (inactive); in the experiment on U-251 it was 22.4 µM (inactive); in the experiment on Malme-3M, 22.3 µM (inactive); with SF-539, 41.3 µM (inactive). The GI50 with OVCAR-5 is 27.7 µM (inactive); with SN12C, 42.3 µM (inactive); with HL-60 it was 14.1 µM (inactive); with A498, 35.5 µM (inactive); in the experiment with RPMI-8226, 15.4 µM (inactive); in the experiment with EKVX, 21.5 µM (inactive). Moreover, the GI50 in the experiment with HCT-15 was 28.4 µM; in the experiment on NCI-H460, 33.3 µM (inactive); in the experiment on OVCAR-8, 25.3 µM (inactive); in the experiment on LOX IMVI, 18.6 µM (inactive); in the experiment on MOLT-4 it was 15.5 µM (inactive); in the experiment on SK-MEL-28 it was 41.1 µM (inactive). In addition, the values for the GI50 in the experiment on NCI-H522 and with KM12 were 22.2 µM (inactive) and 22.3 µM (inactive), respectively.
